Patent EP0920315B1, “TREATMENT OF UPPER AIRWAY ALLERGIC RESPONSES WITH A COMBINATION OF HISTAMINE RECEPTOR ANTAGONISTS” (SCHERING CORPORATION, priority 1996, dated 1998)
Where two headings read alike, the source gives them in different places.

What was measured:
Adult cats = assay: Nasal airway resistance (NAR) after aerosolized Compound 48/80 in anesthetized cats; type: in vivo
Excerpt: Adult cats are anesthetized with intraperitoneal injections of sodium pentobarbital. The right femoral artery and vein are cannulated for measurement of blood pressure with a pressure transducer, and for the administration of drugs. The animals are paralyzed with intravenous gallamine triethiodide and subsequently mechanically ventilated with room air, using an animal ventilator. After isolation of the cervical […], a cuffed endotracheal tube is advanced rostrally into the posterior nasopharynx and inflated to form an air-tight seal, allowing continuous measurement of pressure changes within the nasal cavity. The right nasal airway is occluded with dental impression compound, and humidified air is passed through the left nasal airway at about 1.7 liters per minute. By means of pressure transducers, nasal airway pressure and insufflation pressure can be derived and electronically recorded.
Nasal airway resistance (NAR) is determined by dividing the pressure within the nasal cavity (expressed in centimeters of water) by the air flow rate (expressed in liters per minute). Measurements with 18 subject animals yield an average baseline NAR of 2.6.
The known histamine releaser "Compound 48/80" (the condensation product of N-methyl-p-methoxyphenethylamine with formaldehyde, sold by Sigma Chemical Company, St. Louis, Missouri, USA), as a 1.0 percent solution in 0.9 percent aqueous saline solution, is aerosolized into the air stream for 2 minutes to induce an increased NAR. This effect is used to study the decongestant effects of various test substances, administered to the animals intravenously 10 minutes prior to the introduction of Compound 48/80. These substances include 0.9 percent aqueous saline (normal saline "Vehicle"), phenylpropanolamine hydrochloride at 1.0 mg/Kg of the free drug, thioperamide maleate at 10 mg/Kg of the free drug and chlorpheniramine maleate at 0.8 mg/Kg of the free drug, all of the drug compounds being in solution in 0.9 percent aqueous saline.
The experiment of the preceding example is repeated, but the intravenous drugs are varying amounts of thioperamide (administered as the maleate), in solution together with a constant 0.8 mg/Kg of chlorpheniramine ("CPA," administered as the maleate).
The experiment of preceding Example 1 is repeated, but the intravenous drug administered is clobenpropit in varying amounts, either alone or in solution together with a constant 0.8 mg/Kg of chlorpheniramine ("CPA," administered as the maleate).
To test the statement in U.S. Patent 5,217,986 that verongamine itself has decongestant activity, an experiment similar to that of preceding Example 1, but with a different vehicle, is conducted. The following results are obtained:
The experiment of preceding Example 3 is conducted, using loratadine as the antihistaminic compound at 3 mg/Kg, administered in a solution ("Vehicle") which is 30 percent Dimethylsulfoxide, 40 percent Ethanol and 30 percent normal saline, and using thioperamide as the H3 receptor antagonist at 10 mg/Kg.

histamine H3 receptor = molecular target: T1, histamine H3 receptor (Cavia porcellus, UniProt Q9JI35); assay: Guinea pig brain membrane binding assay (displacement of radiolabeled N-alpha-methylhistamine, Korte et al.)
T1 construct: determined by a guinea pig brain membrane assay; from tissue; host or cells: guinea pig brain membranes
T1 sequence (Q9JI35 whole entry): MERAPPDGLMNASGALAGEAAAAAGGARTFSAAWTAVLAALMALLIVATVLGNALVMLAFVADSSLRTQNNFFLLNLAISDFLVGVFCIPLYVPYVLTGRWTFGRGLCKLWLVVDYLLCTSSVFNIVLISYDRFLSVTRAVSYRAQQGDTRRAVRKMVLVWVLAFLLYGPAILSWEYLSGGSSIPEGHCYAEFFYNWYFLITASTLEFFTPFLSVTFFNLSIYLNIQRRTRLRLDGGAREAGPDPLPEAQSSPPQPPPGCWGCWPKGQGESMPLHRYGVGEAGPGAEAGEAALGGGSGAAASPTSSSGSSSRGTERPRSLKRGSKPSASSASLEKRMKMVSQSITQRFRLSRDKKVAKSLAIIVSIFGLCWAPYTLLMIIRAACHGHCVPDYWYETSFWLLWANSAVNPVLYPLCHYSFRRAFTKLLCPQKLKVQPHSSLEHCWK
Excerpt: A particularly useful screening assay measures binding to sites in guinea pig brain membranes. This test is described in detail by Korte et al., "Characterization and Tissue Distribution of H3 Histamine Receptors in Guinea Pigs by N^α -Methylhistamine," in Biochemical and Biophysical Research Communications, Vol. 168, pages 979-986 (1990), and quantifies the displacement of bound radiolabeled N" - methylhistamine from tissues by candidate compounds. Results are expressed as "Ki" values, in nanoMolar (nM) units, which values can be considered as being dissociation constants for the H3 antagonist on the H3 receptor system, or an index of antagonist affinity for the receptor. The present inventors have evidence that decongestant activity in their invention for a given H3 antagonist concentration can be predicted to increase as the Ki value obtained from the assay for an antagonist decreases. In general, Ki values less than about 200 nM are considered necessary for an agent to be useful as an H3 antagonist in the invention.
The affinity of various histamine H3 receptor antagonists for binding sites is determined by a guinea pig brain membrane assay, according to the procedure of Korte et al., Biochemical and Biophysical Research Communications, Vol. 168, pages 979-986 (1990).

[1] = Example 1, i.v. 10 minutes prior to Compound 48/80, single drugs in 0.9 percent saline: thioperamide 10 mg/Kg, chlorpheniramine 0.8 mg/Kg, phenylpropanolamine 1.0 mg/Kg, NAR = cm of water / liters per minute, Vehicle 9.1

## CN(C)CCC(c1ccc(Cl)cc1)c1ccccn1 (stereo not drawn) [Chlorpheniramine, chlorpheniramine]
Adult cats; [1]
  NAR: 6.0

## NC(=NCc1ccc(Cl)cc1)SCCCc1cnc[nH]1 [Clobenpropit, clobenpropit]
Adult cats; Example 3, Clobenpropit 1.0 mg/Kg alone i.v., Vehicle 9.1
  NAR: 8.5
Histamine H3 receptor
  Ki: 0.1 nM

## CCOC(=O)N1CCC(=C2c3ccc(Cl)cc3CCc3cccnc32)CC1 [Loratadine, loratadine]
Adult cats; Example 6, loratadine 3 mg/Kg, thioperamide 10 mg/Kg, vehicle 30 percent Dimethylsulfoxide, 40 percent Ethanol, 30 percent normal saline, Vehicle 12.6
  NAR: 10.2

## CC(N)C(O)c1ccccc1 (stereo not drawn) [Phenylpropanolamine, phenylpropanolamine]
Adult cats; [1]
  NAR: 2.9

## S=C(NC1CCCCC1)N1CCC(c2cnc[nH]2)CC1 [Thioperamide, thioperamide]
Adult cats; [1]
  NAR: 6.7
Histamine H3 receptor
  Ki: 12 nM

## COc1ccc(C/C(=N\O)C(=O)NCCc2c[nH]cn2)cc1Br [Verongamine, verongamine]
Adult cats; Example 5, Verongamine 10 mg/Kg, different vehicle, Vehicle 7.8
  NAR: 7.3
Histamine H3 receptor; guinea pig brain membranes, read-out: Ki
  Ki: 280 nM
